± gives the expanded uncertainty stated by the source.
Experiment: mn = molality of the nth substance listed, in mol/kg
Conditions: 101 kPa, Liquid; for viscosity: Capillary tube (Ostwald / Ubbelohde) method; for mass density: Vibrating tube method

O=c1cc[nH]c(=O)[nH]1 [2,4(1H,3H)-pyrimidinedione] + O
Conditions	mass density, m1 = 0.005 [kg/m3]	mass density, m1 = 0.01 [kg/m3]	mass density, m1 = 0.015 [kg/m3]	mass density, m1 = 0.02 [kg/m3]	viscosity, m1 = 0.005 [mPa·s]	viscosity, m1 = 0.01 [mPa·s]	viscosity, m1 = 0.015 [mPa·s]	viscosity, m1 = 0.02 [mPa·s]
298.15 K	997.23 ± 1	997.44 ± 1	997.63 ± 1	997.82 ± 1	0.8929 ± 0.021	0.8953 ± 0.025	0.8977 ± 0.022	0.9002 ± 0.021
308.15 K	994.25 ± 1	994.44 ± 1	994.63 ± 1	994.82 ± 1	0.722 ± 0.021	0.7232 ± 0.021	0.7245 ± 0.021	0.727 ± 0.021
318.15 K	990.42 ± 1	990.61 ± 1	990.79 ± 1	990.98 ± 1	0.598 ± 0.02	0.6004 ± 0.022	0.6017 ± 0.021	0.6041 ± 0.02

C[N+](C)(C)CC(=O)O.[Cl-] [betaine hydrochloride] + O
Conditions	mass density, 298.15 K [kg/m3]	mass density, 308.15 K [kg/m3]	mass density, 318.15 K [kg/m3]	viscosity, 298.15 K [mPa·s]	viscosity, 308.15 K [mPa·s]	viscosity, 318.15 K [mPa·s]
m1 = 0.006	997.26 ± 1	994.25 ± 1	990.47 ± 1	0.8929 ± 0.021	0.7208 ± 0.021	0.598 ± 0.02
m1 = 0.0134	997.52 ± 1	994.51 ± 1	990.73 ± 1	0.8965 ± 0.021	0.7244 ± 0.021	0.6005 ± 0.021
m1 = 0.0267	997.98 ± 1	994.97 ± 1	991.19 ± 1	0.9009 ± 0.021	0.7288 ± 0.021	0.6054 ± 0.021
m1 = 0.0401	998.43 ± 1	995.42 ± 1	991.65 ± 1	0.9064 ± 0.021	0.7331 ± 0.021	0.6104 ± 0.021
m1 = 0.0536	998.87 ± 1	995.87 ± 1	992.1 ± 1	0.9124 ± 0.021	0.7381 ± 0.021	0.6153 ± 0.021
m1 = 0.0671	999.31 ± 1	996.31 ± 1	992.54 ± 1	0.9181 ± 0.021	0.7427 ± 0.021	0.62 ± 0.021

Source: the NIST ThermoML archive (doi:10.1016/j.jct.2016.03.008)
